The record followed here is patent US20250084056A1, “SUBSTITUTED OXOISOINDOLINYL PIPERIDINE-2,6-DIONE COMPOUNDS” (BRISTOL-MYERS SQUIBB COMPANY, priority 2023, published 2025).

Type in all cases: cell-based
One test relates to Phospho-Rb (Ser807/811). In words: Phospho-Retinoblastoma (pRB) Cellular Assay. To be noted: Homo sapiens, OVCAR-3, NIH OVCAR3 cells, 24 hours; for pIC50: concentration giving 50% response; for Emax: maximum response, reference compound at 10 μM = 100%, read-out: pRB Ymax. Summed up: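 OVCAR3 cells seeded overnight, then dosed with serial dilutions for 24 h at 37° C. Lysed with kit mix plus phosphatase inhibitor, ≥4 h at room temperature, read on EnVision; 100% response set by reference compound at 10 μM, giving IC50 and Ymax.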

In a further test the target is GSPT1 (Homo sapiens, UniProt P15170+Q96SW2). In words: GSPT1 Cellular Degradation Assay (DF15-GSPT1-ePL). Set-up: expressed in transfected cells. The following applies: DF15-GSPT1-ePL cells, 20 hours. The essentials: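 Human DF15 cells co-expressing a GSPT1–ePL fusion were treated with compound in RPMI 1640/10% FBS for 20 h at 37 °C. GSPT1 level was read by enzyme-fragment-complementation luminescence after 60 min with detection reagent. The reference degrader at […] defined 75% response; DC50 and Dmax were reported.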

A further test has as its target Cyclin E1 (Homo sapiens, UniProt P24864+Q96SW2). Put plainly: Cyclin E1 Cellular Degradation Assay (MSD). The following applies: for DC50 / Dmax: Cyclin E1 cellular degradation; for Dmax: maximum degradation; for Ratio of GSPT1 DC50/Cyclin E1 DC50: selectivity for degradation of Cyclin E1 over GSPT1. Set-up: endogenous in cells; host or cells: OVCAR3. Summed up: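 OVCAR3 cells treated with compound for 24 h at 37 °C, lysed, and cyclin E1 measured by MSD sandwich immunoassay (rabbit capture, mouse detection anti-CCNE1). Reference degrader at […] defined 110% response; DC50 and Dmax derived from response.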

pIC50: −log10 of the molar value. A value given as a limit tells only on which side of the number the result lay.

Chain of Cyclin E1 (P24864 whole entry): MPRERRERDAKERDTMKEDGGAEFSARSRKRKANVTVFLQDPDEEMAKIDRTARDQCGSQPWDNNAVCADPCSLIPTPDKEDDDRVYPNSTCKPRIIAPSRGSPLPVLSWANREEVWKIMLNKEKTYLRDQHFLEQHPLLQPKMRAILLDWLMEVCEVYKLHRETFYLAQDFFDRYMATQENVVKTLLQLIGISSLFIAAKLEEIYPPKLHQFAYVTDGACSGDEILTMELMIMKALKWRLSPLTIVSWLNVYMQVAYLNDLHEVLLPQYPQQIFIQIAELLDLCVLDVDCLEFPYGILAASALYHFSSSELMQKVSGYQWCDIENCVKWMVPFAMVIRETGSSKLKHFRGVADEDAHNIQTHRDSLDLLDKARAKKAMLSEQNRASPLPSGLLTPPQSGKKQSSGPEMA
Chain of Cyclin E1 (Q96SW2 whole entry): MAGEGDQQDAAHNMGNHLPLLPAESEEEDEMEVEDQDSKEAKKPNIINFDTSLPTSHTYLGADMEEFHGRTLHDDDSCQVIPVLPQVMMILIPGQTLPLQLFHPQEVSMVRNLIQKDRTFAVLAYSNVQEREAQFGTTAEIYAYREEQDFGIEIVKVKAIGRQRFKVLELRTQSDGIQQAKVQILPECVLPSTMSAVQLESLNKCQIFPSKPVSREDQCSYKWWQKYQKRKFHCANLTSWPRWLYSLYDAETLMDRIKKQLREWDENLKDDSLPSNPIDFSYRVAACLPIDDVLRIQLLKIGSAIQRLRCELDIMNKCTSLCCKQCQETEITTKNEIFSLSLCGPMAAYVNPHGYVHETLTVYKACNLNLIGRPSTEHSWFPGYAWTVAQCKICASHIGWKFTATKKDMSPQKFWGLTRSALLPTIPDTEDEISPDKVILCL
Chain of Cyclin E1 (Q16531 whole entry partner): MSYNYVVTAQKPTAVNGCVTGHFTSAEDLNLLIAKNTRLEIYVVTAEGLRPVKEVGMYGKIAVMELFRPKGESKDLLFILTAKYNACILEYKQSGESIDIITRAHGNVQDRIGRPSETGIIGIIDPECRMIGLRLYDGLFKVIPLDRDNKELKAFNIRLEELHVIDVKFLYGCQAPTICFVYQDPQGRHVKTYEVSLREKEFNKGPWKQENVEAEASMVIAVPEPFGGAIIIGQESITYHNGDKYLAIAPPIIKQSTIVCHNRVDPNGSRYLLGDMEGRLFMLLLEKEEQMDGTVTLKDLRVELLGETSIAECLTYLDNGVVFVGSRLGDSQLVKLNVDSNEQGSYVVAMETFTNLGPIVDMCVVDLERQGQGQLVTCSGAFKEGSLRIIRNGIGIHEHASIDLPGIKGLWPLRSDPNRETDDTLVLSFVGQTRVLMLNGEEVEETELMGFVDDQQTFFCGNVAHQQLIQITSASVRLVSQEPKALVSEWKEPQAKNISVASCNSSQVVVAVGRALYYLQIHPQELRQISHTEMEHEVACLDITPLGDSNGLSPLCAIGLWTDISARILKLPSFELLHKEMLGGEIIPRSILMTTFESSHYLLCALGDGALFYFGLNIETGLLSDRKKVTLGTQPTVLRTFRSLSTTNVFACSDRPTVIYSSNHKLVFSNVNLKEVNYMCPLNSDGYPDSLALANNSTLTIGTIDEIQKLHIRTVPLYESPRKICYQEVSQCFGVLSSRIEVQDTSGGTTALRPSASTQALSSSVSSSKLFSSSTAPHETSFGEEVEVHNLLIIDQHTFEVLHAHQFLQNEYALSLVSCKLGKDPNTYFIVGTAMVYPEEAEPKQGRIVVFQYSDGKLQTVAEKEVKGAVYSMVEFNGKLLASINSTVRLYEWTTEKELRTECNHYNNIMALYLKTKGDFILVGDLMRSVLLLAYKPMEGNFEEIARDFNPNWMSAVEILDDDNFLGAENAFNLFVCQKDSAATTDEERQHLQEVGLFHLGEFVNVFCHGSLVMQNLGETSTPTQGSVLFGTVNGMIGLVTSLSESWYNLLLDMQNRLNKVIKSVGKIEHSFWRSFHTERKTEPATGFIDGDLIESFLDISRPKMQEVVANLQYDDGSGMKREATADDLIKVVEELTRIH
Chain of GSPT1 (P15170 whole entry, the tested form may be a part): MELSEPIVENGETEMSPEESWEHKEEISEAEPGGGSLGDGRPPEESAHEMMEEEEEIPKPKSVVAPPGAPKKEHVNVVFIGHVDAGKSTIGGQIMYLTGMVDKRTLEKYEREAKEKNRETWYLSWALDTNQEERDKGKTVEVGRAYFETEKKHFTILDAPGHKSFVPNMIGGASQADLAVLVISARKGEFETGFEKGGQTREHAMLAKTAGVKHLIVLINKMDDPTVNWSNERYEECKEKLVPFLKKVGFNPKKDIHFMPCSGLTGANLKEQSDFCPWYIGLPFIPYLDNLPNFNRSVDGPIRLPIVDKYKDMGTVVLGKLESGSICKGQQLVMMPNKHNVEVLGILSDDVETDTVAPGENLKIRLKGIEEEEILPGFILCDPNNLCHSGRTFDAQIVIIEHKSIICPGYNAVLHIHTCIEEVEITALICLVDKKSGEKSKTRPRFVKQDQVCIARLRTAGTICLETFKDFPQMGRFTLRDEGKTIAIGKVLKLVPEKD
Chain of GSPT1 (Q96SW2 whole entry, the tested form may be a part): as the sequence (Q96SW2 whole entry) above
Chain of GSPT1 (Q16531 whole entry partner, the tested form may be a part): as the sequence (Q16531 whole entry partner) above

By pIC50 is commonly meant −log10 of the IC50, conventionally taken in molar units. The low end stands for a large IC50, the high end for a small IC50. For orientation: DC50 means the concentration at which degradation of the target reaches its halfway point. Usually Dmax stands for the greatest extent of degradation seen. Take `COc1c(COC(=O)Nc2ccc(Cc3ccc(F)c(Cl)c3)cc2)ccc2c1C(=O)N(C1CCC(=O)NC1=O)C2` (stereo not drawn) [Example 21, [2-(2,6-dioxopiperidin-3-yl)-4-methoxy-3-oxo-2,3-dihydro-1H-isoindol-5-yl]methyl N-{4-[(3-chloro-4-fluorophenyl)methyl]phenyl}carbamate]: in the test on Phospho-Rb (Ser807/811), the negative-log IC50 (pIC50) was 6.09 and the Emax was determined as 92%. Besides, on GSPT1, the DC50 was more than 14000 nM and the Dmax was determined as 14%. In addition, at Cyclin E1, it took 40 nM to reach half-maximal degradation (DC50), the Dmax is 101% and the “Ratio of GSPT1 DC50/Cyclin E1 DC50” value was more than 353.
Regarding `COc1c(COC(=O)Nc2ccc(Oc3cccc(F)c3F)cc2F)ccc2c1C(=O)N(C1CCC(=O)NC1=O)C2` (stereo not drawn) [Example 22, [2-(2,6-dioxopiperidin-3-yl)-4-methoxy-3-oxo-2,3-dihydro-1H-isoindol-5-yl]methyl N-[4-(2,3-difluorophenoxy)-2-fluorophenyl]carbamate], in the test with Phospho-Rb (Ser807/811), the pIC50 is 6.58 and the Emax came to 97%. In addition, at GSPT1, the DC50 is 11400 nM and the Dmax was determined as 57%. Besides, on Cyclin E1, it took 26 nM to reach half-maximal degradation (DC50), the Dmax is 109% and the “Ratio of GSPT1 DC50/Cyclin E1 DC50” value came out at 431.
With `COc1c(COC(=O)Nc2ccc(Oc3ccc(F)c(F)c3)cc2F)ccc2c1C(=O)N(C1CCC(=O)NC1=O)C2` (stereo not drawn) [Example 23, [2-(2,6-dioxopiperidin-3-yl)-4-methoxy-3-oxo-2,3-dihydro-1H-isoindol-5-yl]methyl N-[4-(3,4-difluorophenoxy)-2-fluorophenyl]carbamate], in the test on Phospho-Rb (Ser807/811), the pIC50 is 6.80 and the Emax was found to be 97%. Moreover, at GSPT1, the half-maximal degradation concentration (DC50) is more than 14000 nM and the Dmax came to 27%. At Cyclin E1, half-maximal degradation (DC50) was put at 71 nM, the Dmax was 105% and the “Ratio of GSPT1 DC50/Cyclin E1 DC50” value is more than 196.
For the molecule `COc1c(COC(=O)Nc2ccc(Oc3cc(F)cc(F)c3)cc2F)ccc2c1C(=O)N(C1CCC(=O)NC1=O)C2` (stereo not drawn) [Example 24, [2-(2,6-dioxopiperidin-3-yl)-4-methoxy-3-oxo-2,3-dihydro-1H-isoindol-5-yl]methyl N-[4-(3,5-difluorophenoxy)-2-fluorophenyl]carbamate], in the test on Phospho-Rb (Ser807/811), the negative-log IC50 (pIC50) is 6.64 and the Emax was found to be 105%. Besides, at GSPT1, the DC50 is more than 14000 nM and the Dmax is 10%. At Cyclin E1, the DC50 is 39 nM, the Dmax was determined as 107% and the “Ratio of GSPT1 DC50/Cyclin E1 DC50” value is given as more than 358.
As for `COc1c(COC(=O)Nc2ccc(Oc3cc(F)c(F)c(F)c3)cc2Cl)ccc2c1C(=O)N(C1CCC(=O)NC1=O)C2` (stereo not drawn) [Example 25, [2-(2,6-dioxopiperidin-3-yl)-4-methoxy-3-oxo-2,3-dihydro-1H-isoindol-5-yl]methyl N-[2-chloro-4-(3,4,5-trifluorophenoxy)phenyl]carbamate], in the test with Phospho-Rb (Ser807/811), the pIC50 is 6.73 and the Emax was 96%. Moreover, on GSPT1, the DC50 is more than 14000 nM and the Dmax amounted to 37%. Further, on Cyclin E1, the DC50 was 184 nM, the Dmax was determined as 107% and the “Ratio of GSPT1 DC50/Cyclin E1 DC50” value is more than 76.
With `COc1c(COC(=O)Nc2ccc(Oc3cccc(Cl)c3)cc2F)ccc2c1C(=O)N(C1CCC(=O)NC1=O)C2` (stereo not drawn) [Example 26, [2-(2,6-dioxopiperidin-3-yl)-4-methoxy-3-oxo-2,3-dihydro-1H-isoindol-5-yl]methyl N-[4-(3-chlorophenoxy)-2-fluorophenyl]carbamate], in the test with Phospho-Rb (Ser807/811), the negative-log IC50 (pIC50) was 6.37 and the Emax amounted to 96%. At GSPT1, the DC50 was more than 14000 nM and the Dmax worked out at 32%. On Cyclin E1, the DC50 is 97 nM, the Dmax was 106% and the “Ratio of GSPT1 DC50/Cyclin E1 DC50” value is reported as more than 145.
In the case of `COc1c(COC(=O)Nc2ccc(Oc3cccc(F)c3)cc2Cl)ccc2c1C(=O)N(C1CCC(=O)NC1=O)C2` (stereo not drawn) [Example 27, [2-(2,6-dioxopiperidin-3-yl)-4-methoxy-3-oxo-2,3-dihydro-1H-isoindol-5-yl]methyl N-[2-chloro-4-(3-fluorophenoxy)phenyl]carbamate], in the test on Phospho-Rb (Ser807/811), the pIC50 was 5.93 and the Emax was 86%. Moreover, on GSPT1, the DC50 is more than 14000 nM and the Dmax turned out to be 30%. In addition, on Cyclin E1, the DC50 is 93 nM, the Dmax worked out at 104% and the “Ratio of GSPT1 DC50/Cyclin E1 DC50” value is listed as more than 151.
Regarding `COc1c(COC(=O)Nc2ccc(Oc3ccc(F)cc3)cc2F)ccc2c1C(=O)N(C1CCC(=O)NC1=O)C2` (stereo not drawn) [Example 28, [2-(2,6-dioxopiperidin-3-yl)-4-methoxy-3-oxo-2,3-dihydro-1H-isoindol-5-yl]methyl N-[2-fluoro-4-(4-fluorophenoxy)phenyl]carbamate], in the test with Phospho-Rb (Ser807/811), the pIC50 is 7.00 and the Emax came out at 106%. On GSPT1, the DC50 was more than 14000 nM and the Dmax was 45%. Further, at Cyclin E1, the DC50 came to 110 nM, the Dmax was found to be 103% and the “Ratio of GSPT1 DC50/Cyclin E1 DC50” value is on record as more than 127.
Turning to `COc1c(COC(=O)Nc2ccc(C(F)(F)c3ccccc3)cc2)ccc2c1C(=O)N(C1CCC(=O)NC1=O)C2` (stereo not drawn) [Example 29, [2-(2,6-dioxopiperidin-3-yl)-4-methoxy-3-oxo-2,3-dihydro-1H-isoindol-5-yl]methyl N-{4-[difluoro(phenyl)methyl]phenyl}carbamate], in the test with Phospho-Rb (Ser807/811), the pIC50 was 6.06 and the Emax worked out at 99%. Besides, at GSPT1, the DC50 was more than 14000 nM and the Dmax came to 45%. At Cyclin E1, the DC50 was 1430 nM, the Dmax was 92% and the “Ratio of GSPT1 DC50/Cyclin E1 DC50” value is reported as more than 10.
Regarding `COc1c(COC(=O)Nc2ccc(Oc3ccc(F)cc3F)cc2F)ccc2c1C(=O)N(C1CCC(=O)NC1=O)C2` (stereo not drawn) [Example 30, [2-(2,6-dioxopiperidin-3-yl)-4-methoxy-3-oxo-2,3-dihydro-1H-isoindol-5-yl]methyl N-[4-(2,4-difluorophenoxy)-2-fluorophenyl]carbamate], in the test with Phospho-Rb (Ser807/811), the pIC50 was 6.35 and the Emax came out at 107%. In addition, on GSPT1, the DC50 was more than 14000 nM and the Dmax was found to be 31%. On Cyclin E1, the DC50 is 672 nM, the Dmax is 103% and the “Ratio of GSPT1 DC50/Cyclin E1 DC50” value was more than 21.
Consider `COc1ccccc1Oc1ccc(NC(=O)OCc2ccc3c(c2OC)C(=O)N(C2CCC(=O)NC2=O)C3)cc1` (stereo not drawn) [Example 31, [2-(2,6-dioxopiperidin-3-yl)-4-methoxy-3-oxo-2,3-dihydro-1H-isoindol-5-yl]methyl N-[4-(2-methoxyphenoxy)phenyl]carbamate], for which, in the test with Phospho-Rb (Ser807/811), the pIC50 was 5.64 and the Emax was found to be 81%. Also, on GSPT1, the DC50 stood at 6600 nM and the Dmax stood at 64%. At Cyclin E1, half-maximal degradation (DC50) was put at 735 nM, the Dmax came to 83% and the “Ratio of GSPT1 DC50/Cyclin E1 DC50” value worked out at 9.
With `COc1cccc(Oc2ccc(NC(=O)OCc3ccc4c(c3OC)C(=O)N(C3CCC(=O)NC3=O)C4)cc2)c1` (stereo not drawn) [Example 32, [2-(2,6-dioxopiperidin-3-yl)-4-methoxy-3-oxo-2,3-dihydro-1H-isoindol-5-yl]methyl N-[4-(3-methoxyphenoxy)phenyl]carbamate], in the test on Phospho-Rb (Ser807/811), the pIC50 is 6.30 and the Emax stood at 83%. In addition, at GSPT1, the DC50 is more than 14000 nM and the Dmax worked out at 24%. In addition, at Cyclin E1, half-maximal degradation (DC50) was put at 67 nM, the Dmax came out at 96% and the “Ratio of GSPT1 DC50/Cyclin E1 DC50” value is given as more than 208.
For the molecule `COc1cc(F)c(F)cc1Oc1ccc(NC(=O)OCc2ccc3c(c2OC)C(=O)N(C2CCC(=O)NC2=O)C3)c(C)c1` (stereo not drawn) [Example 33, [2-(2,6-dioxopiperidin-3-yl)-4-methoxy-3-oxo-2,3-dihydro-1H-isoindol-5-yl]methyl N-[4-(4,5-difluoro-2-methoxyphenoxy)-2-methylphenyl]carbamate], in the test with Phospho-Rb (Ser807/811), the pIC50 was 6.09 and the Emax was 87%. At GSPT1, the DC50 is more than 14000 nM and the Dmax stood at 8%. Also, on Cyclin E1, the 50% degradation concentration (DC50) was determined as 1630 nM, the Dmax stood at 85% and the “Ratio of GSPT1 DC50/Cyclin E1 DC50” value was more than 9.
`COc1cc(Oc2cc(F)c(F)cc2F)ccc1NC(=O)OCc1ccc2c(c1OC)C(=O)N(C1CCC(=O)NC1=O)C2` (stereo not drawn) [Example 34, [2-(2,6-dioxopiperidin-3-yl)-4-methoxy-3-oxo-2,3-dihydro-1H-isoindol-5-yl]methyl N-[2-methoxy-4-(2,4,5-trifluorophenoxy)phenyl]carbamate]: in the test on Phospho-Rb (Ser807/811), the pIC50 is 7.11 and the Emax was found to be 122%. On GSPT1, the DC50 is more than 14000 nM and the Dmax is 19%. Moreover, at Cyclin E1, the DC50 amounted to 194 nM, the Dmax amounted to 107% and the “Ratio of GSPT1 DC50/Cyclin E1 DC50” value was more than 72.
For the molecule `COc1cc(Oc2ccc(F)cc2)ccc1NC(=O)OCc1ccc2c(c1OC)C(=O)N(C1CCC(=O)NC1=O)C2` (stereo not drawn) [Example 37, [2-(2,6-dioxopiperidin-3-yl)-4-methoxy-3-oxo-2,3-dihydro-1H-isoindol-5-yl]methyl N-[4-(4-fluorophenoxy)-2-methoxyphenyl]carbamate], in the test with Phospho-Rb (Ser807/811), the pIC50 is 6.54 and the Emax was 111%. Also, on GSPT1, the DC50 is more than 14000 nM and the Dmax came to 28%. For the same molecule, at Cyclin E1, the DC50 is 107 nM, the Dmax worked out at 102% and the “Ratio of GSPT1 DC50/Cyclin E1 DC50” value is more than 131.
